Experimental data: ChEMBL document CHEMBL1143640, “Modulators of the human CCR5 receptor. Part 2: SAR of substituted 1-(3,3-diphenylpropyl)-piperidinyl phenylacetamides” (Bioorg Med Chem Lett, 2005)

Tests used:
[1] = target: T1, C-C chemokine receptor type 5 (Homo sapiens, UniProt P51681); assay: Displacement of [125I]-MIP-1 alpha from human C-C chemokine receptor type 5 expressed in CHO cells; type: cell-based
[2] = In vitro intrinsic clearance against rat hepatocytes
[3] = target: T1, C-C chemokine receptor type 5; assay: Inhibition of MIP-1beta stimulated calcium transients in CCR5-expressing CHO cells; type: functional, cell-based
[4] = Ability to inhibit the chemotaxis of human AlloT cells in response to MIP-1beta; type: functional, cell-based
[5] = Bioavailability in rat after 4-10 mg/kg oral dosage; n=3; type: ADME, organism-based; conditions: in vivo
[6] = Clearance in rat after 1 mg/kg i.v. dosage; n=3; conditions: in vivo, iv
[7] = Area under the plasma concentration curve was determined at 0-6 hours in rat after ~2 mg/kg oral dosage; n=2

T1 sequence (P51681 whole entry): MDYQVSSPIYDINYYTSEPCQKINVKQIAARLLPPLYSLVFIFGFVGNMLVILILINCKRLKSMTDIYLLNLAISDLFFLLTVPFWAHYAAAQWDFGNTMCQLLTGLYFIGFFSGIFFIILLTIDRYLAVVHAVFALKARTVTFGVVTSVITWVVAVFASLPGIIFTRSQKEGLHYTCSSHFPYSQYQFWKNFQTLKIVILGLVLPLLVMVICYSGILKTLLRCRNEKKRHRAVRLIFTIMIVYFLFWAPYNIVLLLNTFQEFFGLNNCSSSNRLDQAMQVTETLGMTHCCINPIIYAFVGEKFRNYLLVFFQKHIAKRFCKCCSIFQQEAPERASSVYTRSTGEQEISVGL

Compound: CCN(C(=O)Cc1ccc(S(C)(=O)=O)cc1)C1CCN(CCC(c2ccccc2)c2ccc(NC(=O)OC(C)(C)C)cc2)CC1 (stereo not given)
- IC50 [1]: 200 nM

Compound: CCN(C(=O)Cc1ccc(S(C)(=O)=O)cc1)C1CCN(CCC(c2ccccc2)c2ccc(OC)cc2)CC1 (stereo not given)
- IC50 [1]: 6.3 nM
- Clint [2]: 41 uL/min/10e6 cells

Compound: CCN(C(=O)Cc1ccc(S(C)(=O)=O)cc1)C1CCN(CCC(c2ccccc2)c2ccc(NS(C)(=O)=O)cc2)CC1 (stereo not given)
- IC50 [3]: 24 nM
- IC50 [4]: 31 nM
- IC50 [1]: 18 nM

Compound: CCN(C(=O)Cc1ccc(S(C)(=O)=O)cc1)C1CCN(CCC(c2ccccc2)c2ccc(SC)cc2)CC1 (stereo not given)
- IC50 [1]: 12 nM

Compound: CS(=O)(=O)c1ccc(CC(=O)N(C2CC2)C2CCN(CCC(c3ccccc3)c3ccccc3)CC2)cc1
- IC50 [1]: 32 nM

Compound: CCN(C(=O)Cc1ccc(S(C)(=O)=O)cc1)C1CCN(CCC(c2ccccc2)c2ccc(Cl)cc2)CC1 (stereo not given)
- bioavailability [5]: 3%
- IC50 [1]: 8.5 nM
- Clint [2]: 34 uL/min/10e6 cells
- clearance [6]: 46 mL/min/kg

Compound: CCN(C(=O)Cc1ccc(S(C)(=O)=O)cc1)C1CCN(CCC(c2ccccc2)c2ccc(NC(=O)c3ccccc3)cc2)CC1 (stereo not given)
- IC50 [1]: 130 nM

Compound: CCN(C(=O)Cc1ccc(S(C)(=O)=O)cc1)C1CCN(CCC(c2ccccc2)c2ccc(C(N)=O)cc2)CC1 (stereo not given)
- IC50 [1]: 260 nM

Compound: CCN(C(=O)Cc1ccc(S(C)(=O)=O)cc1)C1CCN(CCC(c2ccccc2)c2ccc(NC(=O)C(C)(C)C)cc2)CC1 (stereo not given)
- IC50 [1]: 22 nM

Compound: CCN(C(=O)Cc1ccc(S(C)(=O)=O)cc1)C1CCN(CCC(c2ccccc2)c2ccc(N)cc2)CC1 (stereo not given)
- IC50 [1]: 200 nM

Compound: CCN(C(=O)Cc1ccc(S(C)(=O)=O)cc1)C1CCN(CCC(c2ccccc2)c2ccc(C(F)(F)F)cc2)CC1 (stereo not given)
- IC50 [1]: 2.3 nM
- Clint [2]: 37 uL/min/10e6 cells

Compound: CCN(C(=O)Cc1ccc(S(C)(=O)=O)cc1)C1CCN(CCC(c2ccccc2)c2ccc(C)cc2)CC1 (stereo not given)
- IC50 [1]: 28 nM

Compound: CCN(C(=O)Cc1ccc(S(C)(=O)=O)cc1)C1CCN(CCC(c2ccccc2)c2ccc(-c3ccccc3)cc2)CC1 (stereo not given)
- IC50 [1]: 85 nM

Compound: CCN(C(=O)Cc1ccc(S(C)(=O)=O)cc1)C1CCN(CCC(c2ccc(F)cc2)c2ccc(F)cc2)CC1
- AUC at 6 h [7]: 1.87 µM·h
- bioavailability [5]: 56%
- IC50 [1]: 780 nM
- Clint [2]: 4 uL/min/10e6 cells
- clearance [6]: 10 mL/min/kg

Compound: CCN(C(=O)Cc1ccc(S(C)(=O)=O)cc1)C1CCN(CCC(c2ccc(NC(=O)OC(C)(C)C)cc2)c2cccc(F)c2)CC1 (stereo not given)
- IC50 [1]: 89 nM

Compound: CCN(C(=O)Cc1ccc(S(C)(=O)=O)cc1)C1CCN(CCC(c2ccc(Cl)cc2)c2ccc(Cl)cc2)CC1
- IC50 [1]: 760 nM

Compound: CCN(C(=O)Cc1ccc(S(C)(=O)=O)cc1)C1CCN(CCC(c2ccc(NS(C)(=O)=O)cc2)c2cccc(F)c2)CC1 (stereo not given)
- AUC at 6 h [7]: 0.002 µM·h
- Clint [2]: 15 uL/min/10e6 cells

Compound: CCN(C(=O)Cc1ccc(S(C)(=O)=O)cc1)C1CCN(CCC(c2ccccc2)c2cccc(Cl)c2)CC1 (stereo not given)
- IC50 [1]: 58 nM

Compound: CCN(C(=O)Cc1ccc(S(C)(=O)=O)cc1)C1CCN(CCC(c2ccccc2)c2ccc(NS(=O)(=O)Cc3ccccc3)cc2)CC1 (stereo not given)
- IC50 [1]: 11 nM

Compound: CCN(C(=O)Cc1ccc(S(C)(=O)=O)cc1)C1CCN(CCC(c2ccc(Cl)cc2)c2cccc(F)c2)CC1 (stereo not given)
- IC50 [1]: 19 nM

Compound: CCN(C(=O)Cc1ccc(S(C)(=O)=O)cc1)C1CCN(CCC(c2ccc(NC(C)=O)cc2)c2cccc(F)c2)CC1 (stereo not given)
- AUC at 6 h [7]: 0.008 µM·h
- IC50 [1]: 7.9 nM
- Clint [2]: 17 uL/min/10e6 cells

Compound: CCN(C(=O)Cc1ccc(S(C)(=O)=O)cc1)C1CCN(CCC(c2ccccc2)c2ccc(NC(C)=O)cc2)CC1 (stereo not given)
- IC50 [1]: 26 nM

Compound: CCN(C(=O)Cc1ccc(S(C)(=O)=O)cc1)C1CCN(CCC(c2ccccc2)c2ccc(Cl)c(Cl)c2)CC1 (stereo not given)
- IC50 [1]: 78 nM

Compound: CCN(C(=O)Cc1ccc(S(C)(=O)=O)cc1)C1CCN(CCC(c2ccccc2)c2ccc(C(=O)OC)cc2)CC1 (stereo not given)
- IC50 [1]: 7.1 nM
- Clint [2]: > 150 uL/min/10e6 cells

Compound: CCN(C(=O)Cc1ccc(S(C)(=O)=O)cc1)C1CCN(CCC(c2ccccc2)c2ccccc2)CC1
- IC50 [1]: 18 nM

Compound: C=CCN(C(=O)Cc1ccc(S(C)(=O)=O)cc1)C1CCN(CCC(c2ccccc2)c2ccccc2)CC1
- AUC at 6 h [7]: 0.132 µM·h
- bioavailability [5]: 11%
- IC50 [1]: 13 nM
- Clint [2]: 54 uL/min/10e6 cells
- clearance [6]: 54 mL/min/kg

Compound: CCN(C(=O)Cc1ccc(S(C)(=O)=O)cc1)C1CCN(CCC(c2ccccc2)c2ccc(F)cc2)CC1 (stereo not given)
- IC50 [1]: 310 nM

Compound: CCN(C(=O)Cc1ccc(S(C)(=O)=O)cc1)C1CCN(CCC(c2ccccc2)c2ccc(NS(=O)(=O)c3ccccc3)cc2)CC1 (stereo not given)
- IC50 [1]: 740 nM

Compound: CCN(C(=O)Cc1ccc(S(C)(=O)=O)cc1)C1CCN(CCC(c2ccccc2)c2ccc(NC(=O)Cc3ccccc3)cc2)CC1 (stereo not given)
- AUC at 6 h [7]: 0.012 µM·h
- IC50 [1]: 5.9 nM

Compound: CCN(C(=O)Cc1ccc(S(C)(=O)=O)cc1)C1CCN(CCC(c2ccccc2)c2ccc(C#N)cc2)CC1 (stereo not given)
- IC50 [1]: < 1 nM
